The IC50 is the concentration needed to halve the response being measured.

One assay concerns K562. Description: Cytotoxicity against human K562 cells. It is filed as functional. To be noted: read-out: LC50 (the source's name).
For a further assay, the system named is A549. In words: Cytotoxicity against human A549 cells. It is filed as functional. To be noted: read-out: LC50 (the source's name).
The target in assay [1] is Sodium/potassium-transporting ATPase. In words: Inhibition of Sodium/potassium-transporting ATPase. It is filed as protein-complex assay, Homo sapiens.

`CC(=O)N[C@H]1[C@H](O[C@H]2[C@H](O[C@H]3CC[C@]4(C)C5=C(CC[C@H]4C3(C)C)[C@@H]3CC[C@H]([C@H](C)CC(=O)C=C(C)C)[C@@]3(C)CC5)OC[C@@H](O)[C@@H]2O)O[C@H](CO[C@@H]2O[C@H](CO)[C@@H](O)[C@H](O)[C@H]2O[C@@H]2O[C@H](CO)[C@@H](O)[C@H](O)[C@H]2O)[C@@H](O)[C@@H]1O`: the CC50 stood at 18.7 µM in the assay with K562 and 9.1 µM with A549. The molecule also showed an IC50 in assay [1] of 54.7 µM.
`CC(C)=CC(=O)C[C@@H](C)[C@H]1CCC2=C3CC[C@H]4C(C)(C)[C@@H](O)CC[C@]4(C)[C@H]3CC[C@@]21C`: the CC50 in the assay with K562 is 69.4 µM; with A549 it was 41.6 µM. The IC50 in assay [1] was greater than 234 µM.
With `CC(=O)N[C@H]1[C@H](O[C@@H]2CO[C@@H](O[C@H]3CC[C@]4(C)C5=C(CC[C@H]4C3(C)C)[C@@H]3CC[C@H]([C@H](C)CC(=O)C=C(C)C)[C@@]3(C)CC5)[C@H](O[C@@H]3O[C@H](CO)[C@@H](O)[C@H](O)[C@H]3NC(C)=O)[C@H]2O)O[C@H](CO)[C@H](O)[C@@H]1O` (relative stereo), the CC50 worked out at 20.2 µM in the assay on K562 and 10.7 µM in the assay with A549. In assay [1], this molecule had an IC50 of 56.1 µM.
Take `COc1cccc2c1C(=O)c1c(O)c3c(c(O)c1C2=O)C[C@@](O)(C(=O)CO)C[C@@H]3O[C@H]1C[C@H](N)[C@H](O)[C@H](C)O1` [DOXORUBICIN]: the CC50 was 4.7 µM with K562 and 1.7 µM with A549.
As to `CC(=O)N[C@H]1[C@H](O[C@@H]2CO[C@@H](O[C@H]3CC[C@]4(C)C5=C(CC[C@H]4C3(C)C)[C@@H]3CC[C@H]([C@H](C)CC(=O)C=C(C)C)[C@@]3(C)CC5)[C@H](O[C@@H]3O[C@H](CO[C@@H]4O[C@H](CO)[C@@H](O)[C@H](O)[C@H]4O[C@@H]4O[C@H](CO)[C@@H](O)[C@H](O)[C@H]4O)[C@@H](O)[C@H](O)[C@H]3NC(C)=O)[C@H]2O)O[C@H](CO)[C@H](O)[C@@H]1O` [SARASINOSIDE A1], the CC50 in the assay with K562 stood at 7.4 µM; in the assay with A549, 7.6 µM. In assay [1], this molecule gave a 50% inhibitory concentration (IC50) of 46.5 µM.
Regarding `CC(=O)N[C@H]1[C@H](O[C@@H]2CO[C@@H](O[C@H]3CC[C@]4(C)C5=CC[C@]6(C)[C@@H]([C@H](C)CC(=O)C=C(C)C)CC[C@H]6C5=CC[C@H]4C3(C)C)[C@H](O[C@@H]3O[C@H](CO[C@@H]4O[C@H](CO)[C@@H](O)[C@H](O)[C@H]4O[C@@H]4O[C@H](CO)[C@@H](O)[C@H](O)[C@H]4O)[C@@H](O)[C@H](O)[C@H]3NC(C)=O)[C@H]2O)O[C@H](CO)[C@H](O)[C@@H]1O` [SARASINOSIDE A2], the CC50 in the assay with K562 amounted to 8.5 µM; in the assay on A549, 7.6 µM. In assay [1], this molecule yielded an IC50 greater than 77.7 µM.
Consider `CC(=O)N[C@H]1[C@H](O[C@@H]2CO[C@@H](O[C@H]3CC[C@]4(C)C5=C(CC[C@H]4C3(C)C)C3=CC[C@H]([C@H](C)CC(=O)C=C(C)C)[C@@]3(C)CC5)[C@H](O[C@@H]3O[C@H](CO[C@@H]4O[C@H](CO)[C@@H](O)[C@H](O)[C@H]4O[C@@H]4O[C@H](CO)[C@@H](O)[C@H](O)[C@H]4O)[C@@H](O)[C@H](O)[C@H]3NC(C)=O)[C@H]2O)O[C@H](CO)[C@H](O)[C@@H]1O` [SARASINOSIDE A3], for which the CC50 with K562 amounted to 24.8 µM; with A549, 10.1 µM. For the same molecule, the IC50 in assay [1] was greater than 77.7 µM.
As for `CC(=O)N[C@H]1[C@H](O[C@@H]2CO[C@@H](O[C@H]3CC[C@@]4(C)[C@@H](CCC5=C6[C@H](O)C[C@H]([C@H](C)CC(=O)C=C(C)C)[C@@]6(C)CC[C@@]54O)C3(C)C)[C@H](O[C@@H]3O[C@H](CO[C@@H]4O[C@H](CO)[C@@H](O)[C@H](O)[C@H]4O[C@@H]4O[C@H](CO)[C@@H](O)[C@H](O)[C@H]4O)[C@@H](O)[C@H](O)[C@H]3NC(C)=O)[C@H]2O)O[C@H](CO)[C@H](O)[C@@H]1O` [SARASINOSIDE H1], the CC50 with K562 was 37.4 µM; in the assay on A549, 14.2 µM. In assay [1], this molecule came in with a 50% inhibitory concentration (IC50) greater than 75.7 µM.
Regarding `CO[C@@H]1C[C@H]([C@H](C)CC(=O)C=C(C)C)[C@@]2(C)CC[C@@]3(O)C(=C12)CC[C@H]1C(C)(C)[C@@H](O[C@@H]2OC[C@@H](O[C@@H]4O[C@H](CO)[C@H](O)[C@H](O)[C@H]4NC(C)=O)[C@H](O)[C@H]2O[C@@H]2O[C@H](CO[C@@H]4O[C@H](CO)[C@@H](O)[C@H](O)[C@H]4O[C@@H]4O[C@H](CO)[C@@H](O)[C@H](O)[C@H]4O)[C@@H](O)[C@H](O)[C@H]2NC(C)=O)CC[C@@]13C` [SARASINOSIDE H2], the CC50 in the assay on K562 was 42.7 µM; with A549 it was greater than 100 µM. This molecule also gave an IC50 in assay [1] greater than 74.9 µM.
Regarding `CC(=O)N[C@H]1[C@H](O[C@@H]2CO[C@@H](O[C@H]3CC[C@]4(C)C5=C(CC[C@H]4C3(C)C)[C@@H]3CC[C@H]([C@H](C)CC(=O)CC(C)(C)O)[C@@]3(C)CC5)[C@H](O[C@@H]3O[C@H](CO[C@@H]4O[C@H](CO)[C@@H](O)[C@H](O)[C@H]4O[C@@H]4O[C@H](CO)[C@@H](O)[C@H](O)[C@H]4O)[C@@H](O)[C@H](O)[C@H]3NC(C)=O)[C@H]2O)O[C@H](CO)[C@H](O)[C@@H]1O` [SARASINOSIDE J], the results for the CC50 with K562 and in the assay on A549 were 20.8 µM and 10.3 µM, respectively. This molecule also gave a half-maximal inhibitory concentration (IC50) in assay [1] greater than 76.5 µM.
Consider `CC(=O)N[C@H]1[C@H](O[C@@H]2CO[C@@H](O[C@H]3CC[C@]4(C)C5=CC[C@@]6(C)C(=C(CC[C@H]4C3(C)C)O5)CC[C@@H]6[C@H](C)CC(=O)C=C(C)C)[C@H](O[C@@H]3O[C@H](CO[C@@H]4O[C@H](CO)[C@@H](O)[C@H](O)[C@H]4O[C@@H]4O[C@H](CO)[C@@H](O)[C@H](O)[C@H]4O)[C@@H](O)[C@H](O)[C@H]3NC(C)=O)[C@H]2O)O[C@H](CO)[C@H](O)[C@@H]1O` [SARASINOSIDE M], for which the CC50 in the assay with K562 came to 12.1 µM; in the assay on A549, 7.7 µM. The molecule also came in with an IC50 in assay [1] greater than 76.7 µM.
Taken in the same sequence, the figures for `CC(=O)N[C@H]1[C@H](O[C@@H]2CO[C@@H](O[C@H]3CC[C@]4(C)C5=CC[C@]6(C)[C@@H]([C@H](C)CC(=O)C=C(C)C)CC[C@H]6[C@@]5(O)CC[C@@]4(O)C3(C)C)[C@H](O[C@@H]3O[C@H](CO[C@@H]4O[C@H](CO)[C@@H](O)[C@H](O)[C@H]4O[C@@H]4O[C@H](CO)[C@@H](O)[C@H](O)[C@H]4O)[C@@H](O)[C@H](O)[C@H]3NC(C)=O)[C@H]2O)O[C@H](CO)[C@H](O)[C@@H]1O` [SARASINOSIDE O] were 61.5 µM, 54.7 µM and greater than 75.7 µM.
Regarding `CC(=O)N[C@H]1[C@H](O[C@@H]2CO[C@@H](O[C@H]3CC[C@]4(C)C5=CC[C@]6(C)[C@@H]([C@H](C)CC(=O)C=C(C)C)CC[C@H]6[C@]5(O)CC[C@]4(O)C3(C)C)[C@H](O[C@@H]3O[C@H](CO[C@@H]4O[C@H](CO)[C@@H](O)[C@H](O)[C@H]4O[C@@H]4O[C@H](CO)[C@@H](O)[C@H](O)[C@H]4O)[C@@H](O)[C@H](O)[C@H]3NC(C)=O)[C@H]2O)O[C@H](CO)[C@H](O)[C@@H]1O` [SARASINOSIDE P], the CC50 in the assay on K562 is 11.6 µM; in the assay on A549, 17.9 µM. In assay [1], this molecule showed an IC50 greater than 75.7 µM.
Taken in the same sequence, the figures for `CC(=O)N[C@H]1[C@H](O[C@@H]2CO[C@@H](O[C@H]3CC[C@@]4(C)[C@@H](CCC5=C6CC[C@H]([C@H](C)CC(=O)C=C(C)C)[C@@]6(C)CC[C@@]4(O)O5)C3(C)C)[C@H](O[C@@H]3O[C@H](CO[C@@H]4O[C@H](CO)[C@@H](O)[C@H](O)[C@H]4O[C@@H]4O[C@H](CO)[C@@H](O)[C@H](O)[C@H]4O)[C@@H](O)[C@H](O)[C@H]3NC(C)=O)[C@H]2O)O[C@H](CO)[C@H](O)[C@@H]1O` [SARASINOSIDE Q] were 17.9 µM, 14 µM and greater than 75.7 µM.
On to `CC(=O)N[C@H]1[C@H](O[C@@H]2CO[C@@H](O[C@H]3CC[C@@]4(C)[C@@H](CC[C@@]5(O)[C@]4(O)CC=C4[C@@H]([C@H](C)CC(=O)C=C(C)C)CC[C@@]45C)C3(C)C)[C@H](O[C@@H]3O[C@H](CO[C@@H]4O[C@H](CO)[C@@H](O)[C@H](O)[C@H]4O[C@@H]4O[C@H](CO)[C@@H](O)[C@H](O)[C@H]4O)[C@@H](O)[C@H](O)[C@H]3NC(C)=O)[C@H]2O)O[C@H](CO)[C@H](O)[C@@H]1O` [SARASINOSIDE R], for which the CC50 was greater than 100 µM in the assay on K562 and 14.7 µM in the assay with A549. The molecule further displayed an IC50 in assay [1] greater than 75.7 µM.

These data come from ChEMBL document CHEMBL2069302, “Nortriterpene glycosides of the sarasinoside class from the sponge Lipastrotethya sp” (J Nat Prod, 2012).
